*1 amine or outer side, *2 acyl side, *3 side chain or, on linkers, in order; H or OH if unused. Where a SMILES comes first, the peptide text is derived from it. Bridges are numbered along the chain shown (N, C = ends). Roman numbers before positions name the chains, in order. [ ]: non-standard residue; d: D form. The star is where a group is joined. ξ: configuration not given here. TATA = O=C(CC[*:1])N1CN(C(=O)CC[*:2])CN(C(=O)CC[*:3])C1; Dolaproine = CO[C@@H]([C@@H]1CCCN1)[C@@H](C)C(=O)O; X1 = CC[C@H](C)C(C(CC(=O)[*:2])OC)N(C)[*:1]; 1Nal = N[C@@H](Cc1cccc2ccccc12)C(=O)O; X3 = O=C(CCCC(=O)[*:2])NCCC(=O)[*:1]; PABC = O=C(OCc1ccc(N[*:1])cc1)[*:2]; Hyp = O=C(O)[C@@H]1C[C@@H](O)CN1; hArg = N=C(N)NCCCC[C@H](N)C(=O)O; Cit = NC(=O)NCCC[C@H](N)C(=O)O; X2 = CC(N*)[C@@H](O)c1ccccc1; ξNMeV = CNC(C(=O)O)C(C)C; ξV = CC(C)C(N)C(=O)O; Sar = CNCC(=O)O
Key:
NCI-H292 xenograft = test: Example 9.5: in vivo efficacy in NCI-H292 xenograft in Balb/c nude mice; parameters: species or system Mus Musculus
[1] = BCY8245 (BT8009) at 3 mg/kg
Protocol: At various timepoints, animals were euthanized and plasma and tumour taken and snap frozen. Samples were analysed for MMAE.

A549 xenograft = test: Example 9.1: in vivo efficacy in A549 xenograft in Balb/c nude mice; parameters: species or system Mus Musculus; conditions: for Tumor volume trace over time: iv; for T/C: treated group average tumor volume / control group; for Tumor volume: Mean ± SEM
[2] = 5 mpk, qw, day 0 after the start of treatment
[3] = 3 mpk, biw, day 14 after the start of treatment
[4] = 3 mpk, qw, day 14 after the start of treatment
[5] = 5 mpk, qw, day 14 after the start of treatment

## CC[C@H](C)C(C(CC(=O)N1CCC[C@H]1[C@H](OC)[C@@H](C)C(=O)NC(C)[C@@H](O)c1ccccc1)OC)N(C)C(=O)[C@@H](NC(=O)C(C(C)C)N(C)C(=O)OCc1ccc(NC(=O)[C@H](CCCNC(N)=O)NC(=O)C(NC(=O)CCCC(=O)NCCC(=O)N(C)CC(=O)N(C)CC(=O)N(C)CC(=O)N(C)CC(=O)N(C)CC(=O)N(C)CC(=O)N(C)CC(=O)N(C)CC(=O)N(C)CC(=O)N(C)CC(=O)N[C@H]2CSCCC(=O)N3CN4CN(C3)C(=O)CCSC[C@H](NC(=O)[C@@H](CC(=O)O)NC(=O)[C@H](Cc3cccc5ccccc35)NC(=O)[C@@H]3CCCN3C2=O)C(=O)N[C@@H](CCSC)C(=O)N[C@@H](CCCCNC(=N)N)C(=O)N[C@@H](CC(=O)O)C(=O)N[C@@H](Cc2c[nH]c3ccccc23)C(=O)N[C@@H](CO)C(=O)N[C@@H]([C@@H](C)O)C(=O)N2CCC[C@H]2C(=O)N2C[C@H](O)C[C@H]2C(=O)N[C@@H](Cc2c[nH]c3ccccc23)C(=O)N[C@H](C(N)=O)CSCCC4=O)C(C)C)cc1)C(C)C (stereo partly drawn) [BCY8245, MMAE-PABC-Cit-Val-Glutaryl-BCY8234] (I: [Sar][Sar][Sar][Sar][Sar][Sar][Sar][Sar][Sar][Sar]CP[1Nal][dD]CM[hArg]DWSTP[Hyp]WC-NH2 / II: [ξV][Cit][PABC][ξNMeV]V[X1][Dolaproine]-X2; linker I:11-I:15-I:25 via TATA; linker I:N-II:N via X3)
NCI-H292 xenograft; 3 mpk, biw, day 9
  Tumor volume: 100 mm^3
NCI-H292 xenograft; 3 mpk, biw, day 11
  Tumor volume: 87 mm^3
NCI-H292 xenograft; 3 mpk, biw, day 14
  T/C: 6.9%
  TGI: 112.2%
  Tumor Volume (Mean ± SEM): 65 ± 3 mm^3
  Tumor volume: 65 mm^3
NCI-H292 xenograft; 3 mpk, qw, day 0 after the start of treatment
  Tumor volume: 160 mm^3
NCI-H292 xenograft; 3 mpk, qw, day 2
  Tumor volume: 220 mm^3
NCI-H292 xenograft; 3 mpk, qw, day 4
  Tumor volume: 266 mm^3
NCI-H292 xenograft; 3 mpk, qw, day 7
  Tumor volume: 218 mm^3
NCI-H292 xenograft; 3 mpk, qw, day 9
  Tumor volume: 167 mm^3
NCI-H292 xenograft; 3 mpk, qw, day 11
  Tumor volume: 161 mm^3
NCI-H292 xenograft; 3 mpk, qw, day 14
  T/C: 15.8%
  TGI: 101.4%
  Tumor Volume (Mean ± SEM): 149 ± 43 mm^3
  Tumor volume: 149 mm^3
NCI-H292 xenograft; [2]
  Tumor volume: 160 mm^3
NCI-H292 xenograft; 5 mpk, qw, day 2
  Tumor volume: 176 mm^3
NCI-H292 xenograft; 5 mpk, qw, day 4
  Tumor volume: 191 mm^3
NCI-H292 xenograft; 5 mpk, qw, day 7
  Tumor volume: 105 mm^3
NCI-H292 xenograft; 5 mpk, qw, day 9
  Tumor volume: 82 mm^3
NCI-H292 xenograft; 5 mpk, qw, day 11
  Tumor volume: 91 mm^3
NCI-H292 xenograft; 5 mpk, qw, day 14
  T/C: 8.8%
  TGI: 109.8%
  Tumor Volume (Mean ± SEM): 83 ± 8 mm^3
  Tumor volume: 83 mm^3
NCI-H292 xenograft; mouse, in vivo
  tumor response (in words): causes regression of the tumor
[1]
  retention of MMAE in tumour versus plasma (in words): retained in the tumour longer than in plasma
A549 xenograft; 3 mg/kg biw, day 14
  TGI: 90.8%
  Tumor volume (TV): 194 mm^3
A549 xenograft; 3 mg/kg qw, day 14
  TGI: 51.4%
  Tumor volume (TV): 356 mm^3
A549 xenograft; 5 mg/kg qw, day 14
  TGI: 82.6%
  Tumor volume (TV): 228 mm^3
A549 xenograft; 3 mpk, biw, day 0 after the start of treatment
  Tumor volume trace over time: 157 ± 14
A549 xenograft; 3 mpk, biw, day 2 after the start of treatment
  Tumor volume trace over time: 183 ± 27
A549 xenograft; 3 mpk, biw, day 5 after the start of treatment
  Tumor volume trace over time: 158 ± 16
A549 xenograft; 3 mpk, biw, day 7 after the start of treatment
  Tumor volume trace over time: 184 ± 6
A549 xenograft; 3 mpk, biw, day 9 after the start of treatment
  Tumor volume trace over time: 182 ± 8
A549 xenograft; 3 mpk, biw, day 12 after the start of treatment
  Tumor volume trace over time: 190 ± 15
A549 xenograft; [3]
  Tumor volume trace over time: 194 ± 27
  TGI: 90.8%
  Tumor volume: 194 ± 27 mm^3
A549 xenograft; 3 mpk, biw, day 14
  T/C: 34.2%
A549 xenograft; 3 mpk, qw, day 0 after the start of treatment, mean ± SEM
  Tumor volume trace over time: 157 ± 10
A549 xenograft; 3 mpk, qw, day 2 after the start of treatment
  Tumor volume trace over time: 208 ± 15
A549 xenograft; 3 mpk, qw, day 5 after the start of treatment
  Tumor volume trace over time: 197 ± 25
A549 xenograft; 3 mpk, qw, day 7 after the start of treatment
  Tumor volume trace over time: 257 ± 40
A549 xenograft; 3 mpk, qw, day 9 after the start of treatment
  Tumor volume trace over time: 293 ± 41
A549 xenograft; 3 mpk, qw, day 12 after the start of treatment
  Tumor volume trace over time: 341 ± 54
A549 xenograft; [4]
  Tumor volume trace over time: 356 ± 53
  TGI: 51.4%
  Tumor volume: 356 ± 53 mm^3
A549 xenograft; 3 mpk, qw, day 14
  T/C: 62.8%
A549 xenograft; [2]
  Tumor volume trace over time: 157 ± 14
A549 xenograft; 5 mpk, qw, day 2 after the start of treatment
  Tumor volume trace over time: 179 ± 22
A549 xenograft; 5 mpk, qw, day 5 after the start of treatment
  Tumor volume trace over time: 147 ± 10
A549 xenograft; 5 mpk, qw, day 7 after the start of treatment
  Tumor volume trace over time: 172 ± 23
A549 xenograft; 5 mpk, qw, day 9 after the start of treatment
  Tumor volume trace over time: 173 ± 24
A549 xenograft; 5 mpk, qw, day 12 after the start of treatment
  Tumor volume trace over time: 204 ± 36
A549 xenograft; [5]
  Tumor volume trace over time: 228 ± 33
  TGI: 82.6%
  Tumor volume: 228 ± 33 mm^3
A549 xenograft; 5 mpk, qw, day 14
  T/C: 40.2%
A549 xenograft; all dose groups
  bodyweight (in words): maintained the bodyweight well
A549 xenograft; mouse, in vivo
  tumor response (in words): tumor growth is restrained by BCY8245 but the tumor does not undergo regression
